Data from patent publication US20210254056A1, “IDENTIFICATION AND TARGETED MODULATION OF GENE SIGNALING NETWORKS” (CAMP4 THERAPEUTICS CORPORATION, priority 2017, published 2021).
Structures can show the parent of a compound that is named as a salt.

Test system: hepatocytes
Test: RNA-seq of hepatocytes treated with Phase III failure compounds
Conditions: for significant changes in gene expression: RNA-seq of Table 36, FPKM≥0.5, log 2(fold-change)≥1, q-value≤0.05
Protocol: RNA-seq was performed to determine the effects of the compounds on hepatocytes.
Significance was determined by the criteria of FPKM≥0.5, a log 2(fold-change)≥1, and a […].

`C=CCNC1=C2C[C@@H](C)C[C@H](OC)[C@H](O)[C@@H](C)/C=C(\C)[C@H](OC(N)=O)[C@@H](OC)/C=C\C=C(/C)C(=O)NC(=CC1=O)C2=O` [17-MG (Tanespimycin), Tanespimycin] was tested, and the “RNA-seq results, CYP2B6 expression” value was 1.32, the “RNA-seq results, CYP2C19 expression” value was 0.34 and the “RNA-seq results, CYP2D6 expression” value was 0.06. For the same molecule, the “RNA-seq results, CYP3A4 expression” value was 2.50, the “RNA-seq results, CYP7B1 expression” value was 0.43 and the “RNA-seq results, CYP39A1 expression” value was 1.38. For the same molecule, the “RNA-seq results: CYP2B6 expression” value was 0.2, the “RNA-seq results: CYP2C19 expression” value was −1.4 and the “RNA-seq results: CYP2D6 expression” value was 0.27. For the same molecule, the “RNA-seq results: CYP3A4 expression” value was 0.96, the “RNA-seq results: CYP7B1 expression” value was −1.05 and the “RNA-seq results: CYP39A1 expression” value was −0.62. The “RNA-seq results: A1BG expression” value (gene A1BG, hepatocytes) was −0.10, the “RNA-seq results: AGTR1 expression” value (gene AGTR1, hepatocytes) was −0.03 and the “RNA-seq results: AGXT expression” value (gene AGXT, hepatocytes) was 0.27. The “RNA-seq results: AHI1 expression” value (gene AHI1, hepatocytes) was 0.39, the “RNA-seq results: AMPD3 expression” value (gene AMPD3, hepatocytes) was 1.15 and the “RNA-seq results: AMT expression” value (gene AMT, hepatocytes) was 0.31. The “RNA-seq results: ANGPTL3 expression” value (gene ANGPTL3, hepatocytes) was 0.06, the “RNA-seq results: ANKS4B expression” value (gene ANKS4B, hepatocytes) was 1.12 and the “RNA-seq results: ANKS6 expression” value (gene ANKS6, hepatocytes) was −0.15. The “RNA-seq results: ANPEP expression” value (gene ANPEP, hepatocytes) was −0.06, the “RNA-seq results: AOC2 expression” value (gene AOC2, hepatocytes) was 0.24 and the “RNA-seq results: APOA2 expression” value (gene APOA2, hepatocytes) was −0.64. The “RNA-seq results: APOA5 expression” value (gene APOA5, hepatocytes) was 0.07, the “RNA-seq results: APOB expression” value (gene APOB, hepatocytes) was 2.13 and the “RNA-seq results: COG5 expression” value (gene COG5, hepatocytes) was −1.94. The “RNA-seq results: COG6 expression” value (gene COG6, hepatocytes) was −0.28, the “RNA-seq results: COL1A1 expression” value (gene COL1A1, hepatocytes) was 0.45 and the “RNA-seq results: COX6A1 expression” value (gene COX6A1, hepatocytes) was 0.27. For the same molecule, the “RNA-seq results: CP expression” value (gene CP, hepatocytes) was 0.19, the “RNA-seq results: CPS1 expression” value (gene CPS1, hepatocytes) was −0.79 and the “RNA-seq results: CPT1A expression” value (gene CPT1A, hepatocytes) was −1.18. The “RNA-seq results: CPT2 expression” value (gene CPT2, hepatocytes) was 1.3, the “RNA-seq results: CROT expression” value (gene CROT, hepatocytes) was 0.23 and the “RNA-seq results: CSPP1 expression” value (gene CSPP1, hepatocytes) was −0.45. For the same molecule, the “RNA-seq results: CTC1 expression” value (gene CTC1, hepatocytes) was 0.65, the “RNA-seq results: CTDSP2 expression” value (gene CTDSP2, hepatocytes) was −0.36 and the “RNA-seq results: CTH expression” value (gene CTH, hepatocytes) was 1.32. For the same molecule, the “RNA-seq results: CTNS expression” value (gene CTNS, hepatocytes) was −0.39, the “RNA-seq results: CTSF expression” value (gene CTSF, hepatocytes) was 0.01 and the “RNA-seq results: CTSK expression” value (gene CTSK, hepatocytes) was 1.01. The “RNA-seq results: CYB5A expression” value (gene CYB5A, hepatocytes) was −0.54, the “RNA-seq results: CYB5R3 expression” value (gene CYB5R3, hepatocytes) was −0.57 and the “RNA-seq results: CYP27A1 expression” value (gene CYP27A1, hepatocytes) was −0.12. The “RNA-seq results: DAO expression” value (gene DAO, hepatocytes) was −0.79, the “RNA-seq results: DBT expression” value (gene DBT, hepatocytes) was −0.27 and the “RNA-seq results: DCDC2 expression” value (gene DCDC2, hepatocytes) was −2.14. For the same molecule, the “RNA-seq results: DCXR expression” value (gene DCXR, hepatocytes) was −0.21, the “RNA-seq results: FABP1 expression” value (gene FABP1, hepatocytes) was −0.95 and the “RNA-seq results: FADD expression” value (gene FADD, hepatocytes) was −0.41. The “RNA-seq results: FAM111A expression” value (gene FAM111A, hepatocytes) was 0.93, the “RNA-seq results: FAM111B expression” value (gene FAM111B, hepatocytes) was −1.24 and the “RNA-seq results: FAN1 expression” value (gene FAN1, hepatocytes) was 0.32. For the same molecule, the “RNA-seq results: FARS2 expression” value (gene FARS2, hepatocytes) was −3, the “RNA-seq results: FASLG expression” value (gene FASLG, hepatocytes) was −1.15 and the “RNA-seq results: FGA expression” value (gene FGA, hepatocytes) was 0.46. The “RNA-seq results: FGD1 expression” value (gene FGD1, hepatocytes) was −1.37, the “RNA-seq results: FGFR2 expression” value (gene FGFR2, hepatocytes) was −2.48 and the “RNA-seq results: FIG4 expression” value (gene FIG4, hepatocytes) was −0.69. For the same molecule, the “RNA-seq results: FIS1 expression” value (gene FIS1, hepatocytes) was −0.22, the “RNA-seq results: FTCD expression” value (gene FTCD, hepatocytes) was −1.66 and the “RNA-seq results: FTH1 expression” value (gene FTH1, hepatocytes) was −0.49. The “RNA-seq results: FUCA1 expression” value (gene FUCA1, hepatocytes) was 0.43, the “RNA-seq results: FXN expression” value (gene FXN, hepatocytes) was −1.04 and the “RNA-seq results: G6PC3 expression” value (gene G6PC3, hepatocytes) was −0.38. For the same molecule, the “RNA-seq results: G6PC expression” value (gene G6PC, hepatocytes) was −0.03, the “RNA-seq results: G6PD expression” value (gene G6PD, hepatocytes) was 1.7 and the “RNA-seq results: GALK1 expression” value (gene GALK1, hepatocytes) was −0.7. For the same molecule, the “RNA-seq results: GALK2 expression” value (gene GALK2, hepatocytes) was −1.47, the “RNA-seq results: GALT expression” value (gene GALT, hepatocytes) was −0.43 and the “RNA-seq results: GATA6 expression” value (gene GATA6, hepatocytes) was −0.77. For the same molecule, the “RNA-seq results: GATM expression” value (gene GATM, hepatocytes) was −1.11, the “RNA-seq results: GBA expression” value (gene GBA, hepatocytes) was −0.38 and the “RNA-seq results: GBE1 expression” value (gene GBE1, hepatocytes) was −2.25. For the same molecule, the “RNA-seq results: GCH1 expression” value (gene GCH1, hepatocytes) was 0.43, the “RNA-seq results: GCKR expression” value (gene GCKR, hepatocytes) was −0.16 and the “RNA-seq results: GCLC expression” value (gene GCLC, hepatocytes) was −0.18. The “RNA-seq results: GOSH expression” value (gene GOSH, hepatocytes) was −1.49, the “RNA-seq results: RRM2B” value (gene RRM2B, hepatocytes) was 1.19 and the “RNA-seq results: RSAD1” value (gene RSAD1, hepatocytes) was −0.23. The “RNA-seq results: SAMHD1” value (gene SAMHD1, hepatocytes) was −0.05, the “RNA-seq results: SC5D” value (gene SC5D, hepatocytes) was 1.56 and the “RNA-seq results: SCARB1” value (gene SCARB1, hepatocytes) was −0.35. The “RNA-seq results: SCN9A” value (gene SCN9A, hepatocytes) was −0.22, the “RNA-seq results: SDCCAG8” value (gene SDCCAG8, hepatocytes) was 0.11 and the “RNA-seq results: SEPN1” value (gene SEPN1, hepatocytes) was −0.07. The “RNA-seq results: SERAC1” value (gene SERAC1, hepatocytes) was 0.26, the “RNA-seq results: SERPINA1” value (gene SERPINA1, hepatocytes) was −0.05 and the “RNA-seq results: SERPING1” value (gene SERPING1, hepatocytes) was 0.28. For the same molecule, the “RNA-seq results: SERPINI1” value (gene SERPINI1, hepatocytes) was 0.22, the “RNA-seq results: SETBP1” value (gene SETBP1, hepatocytes) was 0.54 and the “RNA-seq results: SFXN4” value (gene SFXN4, hepatocytes) was −0.14. The “RNA-seq results: SLC10A1” value (gene SLC10A1, hepatocytes) was 1.13, the “RNA-seq results: SLC10A3” value (gene SLC10A3, hepatocytes) was −1.25 and the “RNA-seq results: SLC10A5” value (gene SLC10A5, hepatocytes) was 2.20. For the same molecule, the “RNA-seq results: SLC10A7” value (gene SLC10A7, hepatocytes) was 0.55, the “RNA-seq results: SLC11A2” value (gene SLC11A2, hepatocytes) was 0.65 and the “RNA-seq results: SLC19A1” value (gene SLC19A1, hepatocytes) was −0.71. For the same molecule, the “RNA-seq results: SLC19A2” value (gene SLC19A2, hepatocytes) was 0.62, the “RNA-seq results: SLC19A3” value (gene SLC19A3, hepatocytes) was 0.68 and the “RNA-seq results: SLC22A1” value (gene SLC22A1, hepatocytes) was 0.08. The “RNA-seq results: SLC22A5” value (gene SLC22A5, hepatocytes) was −0.72, the “RNA-seq results: SLC25A1” value (gene SLC25A1, hepatocytes) was −0.29 and the “RNA-seq results: SLC25A10” value (gene SLC25A10, hepatocytes) was −0.45. For the same molecule, the “RNA-seq results: SLC25A12” value (gene SLC25A12, hepatocytes) was −0.06, the “RNA-seq results: SLC25A13” value (gene SLC25A13, hepatocytes) was 0.72 and the “RNA-seq results: SLC25A15” value (gene SLC25A15, hepatocytes) was 0.58. The “RNA-seq results: SLC25A19” value (gene SLC25A19, hepatocytes) was −0.70, the “RNA-seq results: SLC25A20” value (gene SLC25A20, hepatocytes) was −0.52 and the “RNA-seq results: SLC25A29” value (gene SLC25A29, hepatocytes) was −1.07. The “RNA-seq results: SLC25A32” value (gene SLC25A32, hepatocytes) was −0.50.
In the case of `Cc1ccc2c(c1)c1c(n2CCc2ccc(C)nc2)CCN(C)C1` [Latrepirdine (dihydrochloride) (64), Latrepirdine], the “significant changes in gene expression” value is reported as “not observed to cause any significant changes in gene expression”.
With `Cl.OC[C@H]1NC[C@H](O)[C@@H](O)[C@H]1O` [Deoxygalactonojirimycin hydrochloride] the “significant changes in gene expression” value was “not observed to cause any significant changes in gene expression” and the “significant modulation of expression of any of the genes analyzed” value (RNA-seq, p≤0.05, hepatocytes) was “not observed to significantly modulate expression”.
